According to ChEMBL document CHEMBL1201862, “PubChem BioAssay data set” (2004):
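1) Cells in 96-well plates. 2) Compound, 48 h, 5 concentrations. 3) Linear interpolation between surrounding doses. 4) Unreached endpoint = highest concentration. GI50 marks 50% less growth.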 Activity calls are given as the source filed them. Cut-off read from the data, not from the text of the source: active = GI50 up to about 1.1 µM and inactive = higher.

What was measured:
Experiment in all cases: NCI-60 cell line screen, 48 h
[1] = test system: 786-0
[2] = test system: A498
[3] = test system: A549
[4] = test system: ACHN
[5] = test system: CAKI-1
[6] = test system: CCRF-CEM
[7] = test system: COLO 205
[8] = test system: DLD-1
[9] = test system: DMS-114
[10] = test system: DMS-273
[11] = test system: EKVX
[12] = test system: HCC 2998
[13] = test system: HCT-116
[14] = test system: HCT-15
[15] = test system: HL-60
[16] = test system: HOP-18
[17] = test system: HOP-62
[18] = test system: HOP-92
[19] = test system: IGROV-1
[20] = test system: K562
[21] = test system: KM-20L2
[22] = test system: LOX IMVI
[23] = test system: LXFL 529
[24] = test system: M14
[25] = test system: M19-MEL
[26] = test system: MOLT-4
[27] = test system: Malme-3M
[28] = test system: NCI-H23
[29] = test system: NCI-H460
[30] = test system: NCI-H522
[31] = test system: OVCAR-3
[32] = test system: OVCAR-4
[33] = test system: OVCAR-5
[34] = test system: OVCAR-8
[35] = test system: RPMI-8226
[36] = test system: RXF 393
[37] = test system: SF-268
[38] = test system: SF-295
[39] = test system: SK-MEL-28
[40] = test system: SK-MEL-2
[41] = test system: SK-MEL-5
[42] = test system: SK-OV-3
[43] = test system: SN12C
[44] = test system: SNB-19
[45] = test system: SNB-75
[46] = test system: SR
[47] = test system: SW-620
[48] = test system: TK-10
[49] = test system: U-251
[50] = test system: UACC-62
[51] = test system: UO-31
[52] = test system: XF498

Question: With CCOC(=O)c1cc2c(OCc3ccccc3)c(OC)cc3c2c(n1)N(c1ccc(OC)cc1)C(C)C3 (configuration not stated) as the molecule, how does the GI50 [1] read?
Answer: > 50 µM (inactive)

Question: What about the GI50 [2] of the same molecule?
Answer: > 50 µM (inactive)

Question: And the GI50 [3]?
Answer: > 50 µM (inactive)

Question: And the GI50 [4]?
Answer: > 50 µM (inactive)

Question: What about the GI50 [5] of the same molecule?
Answer: 23.2 µM (inactive)

Question: And the GI50 [6]?
Answer: > 50 µM (inactive)

Question: And the GI50 [7]?
Answer: > 50 µM (inactive)

Question: What about the GI50 [8] of the same molecule?
Answer: > 50 µM (inactive)

Question: What about the GI50 [9] of the same molecule?
Answer: 38.3 µM (inactive)

Question: And the GI50 [10]?
Answer: > 50 µM (inactive)

Question: And the GI50 [11]?
Answer: > 50 µM (inactive)

Question: And the GI50 [12]?
Answer: 44.4 µM (inactive)

Question: And the GI50 [13]?
Answer: > 50 µM (inactive)

Question: What about the GI50 [14] of the same molecule?
Answer: > 50 µM

Question: What about the GI50 [15] of the same molecule?
Answer: 45.6 µM (inactive)

Question: And the GI50 [16]?
Answer: > 50 µM (inactive)

Question: What about the GI50 [17] of the same molecule?
Answer: > 50 µM (inactive)

Question: What about the GI50 [18] of the same molecule?
Answer: 8.91 µM (inactive)

Question: What about the GI50 [19] of the same molecule?
Answer: > 50 µM (inactive)

Question: And the GI50 [20]?
Answer: > 50 µM (inactive)

Question: And the GI50 [21]?
Answer: 2.47 µM (inactive)

Question: What about the GI50 [22] of the same molecule?
Answer: > 50 µM (inactive)

Question: What about the GI50 [23] of the same molecule?
Answer: 39.4 µM (inactive)

Question: And the GI50 [24]?
Answer: > 50 µM (inactive)

Question: And the GI50 [25]?
Answer: > 50 µM (inactive)

Question: What about the GI50 [26] of the same molecule?
Answer: > 50 µM (inactive)

Question: What about the GI50 [27] of the same molecule?
Answer: > 50 µM (inactive)

Question: And the GI50 [28]?
Answer: > 50 µM (inactive)

Question: What about the GI50 [29] of the same molecule?
Answer: 49.9 µM (inactive)

Question: What about the GI50 [30] of the same molecule?
Answer: 25.2 µM (inactive)

Question: What about the GI50 [31] of the same molecule?
Answer: 23.2 µM (inactive)

Question: What about the GI50 [32] of the same molecule?
Answer: 10.4 µM (inactive)

Question: What about the GI50 [33] of the same molecule?
Answer: > 50 µM (inactive)

Question: And the GI50 [34]?
Answer: > 50 µM (inactive)

Question: What about the GI50 [35] of the same molecule?
Answer: 2.69 µM (inactive)

Question: What about the GI50 [36] of the same molecule?
Answer: 33.6 µM (inactive)

Question: And the GI50 [37]?
Answer: > 50 µM (inactive)

Question: And the GI50 [38]?
Answer: > 50 µM (inactive)

Question: And the GI50 [39]?
Answer: > 50 µM (inactive)

Question: What about the GI50 [40] of the same molecule?
Answer: > 50 µM (inactive)

Question: What about the GI50 [41] of the same molecule?
Answer: > 50 µM (inactive)

Question: And the GI50 [42]?
Answer: > 50 µM (inactive)

Question: And the GI50 [43]?
Answer: > 50 µM (inactive)

Question: What about the GI50 [44] of the same molecule?
Answer: > 50 µM (inactive)

Question: What about the GI50 [45] of the same molecule?
Answer: > 50 µM (inactive)

Question: What about the GI50 [46] of the same molecule?
Answer: > 50 µM (inactive)

Question: And the GI50 [47]?
Answer: > 50 µM (inactive)

Question: And the GI50 [48]?
Answer: > 50 µM (inactive)

Question: What about the GI50 [49] of the same molecule?
Answer: 28.6 µM (inactive)

Question: What about the GI50 [50] of the same molecule?
Answer: 49.3 µM (inactive)

Question: What about the GI50 [51] of the same molecule?
Answer: > 50 µM (inactive)

Question: And the GI50 [52]?
Answer: > 50 µM (inactive)
